Drawing on ChEMBL document CHEMBL1144369, “2-Ethoxybenzoxazole as a bioisosteric replacement of an ethyl benzoate group in a human rhinovirus (HRV) capsid binder” (Bioorg Med Chem Lett, 2005), this text covers EC50 and inhibition for 20 compounds.

By EC50 is commonly meant the concentration giving half of the maximal effect. A higher EC50 goes with lower potency in that assay. Usually inhibition stands for the share of the control response that was lost under treatment.

The test system of assay [1] is Human rhinovirus sp. Put plainly: Effective concentration against HRV-14. It is filed as functional, organism-based.
The test system of assay [2] is Human rhinovirus sp. Put plainly: Effective concentration against HRV-2. Format: functional, organism-based.
For assay [3], the system named is Human rhinovirus sp. Put plainly: Effective concentration against HRV serotype 72 (assay was run at least six times). Format: functional, organism-based.
In assay [4] the test system is Human rhinovirus sp. Put plainly: Effective concentration against HRV serotype 70 (assay was run at least six times). It is filed as functional, organism-based.
The subject of assay [5] is Human rhinovirus sp. Put plainly: Effective concentration against HRV serotype 15 (assay was run at least six times). Format: functional, organism-based.
Assay [6] has as its system Human rhinovirus sp. Put plainly: Effective concentration against HRV serotype 39 (assay was run at least six times). It is filed as functional, organism-based.
Assay [7] relates to Human rhinovirus sp. Put plainly: Effective concentration against HRV serotype 14 (assay was run at least six times). Format: functional, organism-based.
Assay [8] relates to Human rhinovirus sp. Put plainly: Effective concentration against HRV serotype 59 (assay was run at least six times). It is filed as functional, organism-based.
In assay [9] the test system is Human rhinovirus sp. Put plainly: Effective concentration against HRV serotype 16 (assay was run at least six times). It is filed as functional, organism-based.
In assay [10] the test system is Human rhinovirus sp. Put plainly: Effective concentration against HRV serotype 2 (assay was run at least six times). It is filed as functional, organism-based.
Assay [11] has as its system Human rhinovirus sp. Put plainly: Median effective concentration against HRV serotypes; Number of serotypes 16. Format: functional, organism-based.
Assay [12] relates to Human rhinovirus sp. Put plainly: Effective concentration against HRV serotype 85 (assay was run at least six times). Format: functional, organism-based.
Assay [13] has as its system Human rhinovirus sp. Put plainly: Effective concentration against HRV serotype 45 (assay was run at least six times). Format: functional, organism-based.
In assay [14] the test system is Human rhinovirus sp. Put plainly: Effective concentration against HRV serotype 51 (assay was run at least six times). It is filed as functional, organism-based.
In assay [15] the test system is Human rhinovirus sp. Put plainly: Effective concentration against HRV serotype 86 (assay was run at least six times). It is filed as functional, organism-based.
The test system of assay [16] is Human rhinovirus sp. Put plainly: Effective concentration against HRV serotype 89 (assay was run at least six times). Format: functional, organism-based.
Assay [17] relates to Human rhinovirus sp. Put plainly: Effective concentration against HRV serotype 29 (assay was run at least six times). Format: functional, organism-based.
In assay [18] the test system is Human rhinovirus sp. Put plainly: Effective concentration against HRV serotype 9 (assay was run at least six times). Format: functional, organism-based.
The test system of assay [19] is Human rhinovirus sp. Put plainly: Effective concentration against HRV serotype 63 (assay was run at least six times). It is filed as functional, organism-based.
Assay [20] deals with Human rhinovirus sp. Put plainly: Percent inhibition of HRV strains at a concentration of 0.064 ug/mL; no. of strains=100. Format: functional.
Assay [21] concerns Human rhinovirus sp. Put plainly: Effective concentration against HRV-16. Format: functional, organism-based.
The test system of assay [22] is Human rhinovirus sp. Put plainly: Effective concentration against HRV serotype 45 (assay was run for 3 times). Format: functional, organism-based.

Values after ≈ are worked out from the molar mass of the structure shown.

For the compound `CCc1nc2cc(OCCC3CCN(c4ccc(C)nn4)CC3)ccc2o1`, the EC50 in the assay with Human rhinovirus sp. [1] stood at 0.13 µg/mL (≈ 0.355 µM); in the assay with Human rhinovirus sp. [2], 0.144 µg/mL (≈ 0.393 µM).

Take `CCCOc1nc2cc(OCCC3CCN(c4ccc(C)nn4)CC3)ccc2o1`: the EC50 was determined as 0.02 µg/mL (≈ 0.0504 µM) with Human rhinovirus sp. [1] and 0.002 µg/mL (≈ 0.00504 µM) in the assay with Human rhinovirus sp. [2].

As to `Cc1cc(CCCOc2c(C)cc(-c3noc(C(F)(F)F)n3)cc2C)on1` [PLECONARIL], the EC50 in the assay with Human rhinovirus sp. [3] was determined as 0.469 µg/mL (≈ 1.23 µM); with Human rhinovirus sp. [4], 0.0539 µg/mL (≈ 0.141 µM); in the assay with Human rhinovirus sp. [5], 0.0698 µg/mL (≈ 0.183 µM); with Human rhinovirus sp. [6] it was 0.0449 µg/mL (≈ 0.118 µM); in the assay with Human rhinovirus sp. [7], 0.0343 µg/mL (≈ 0.09 µM); with Human rhinovirus sp. [8] it was 0.387 µg/mL (≈ 1.02 µM). Besides, the EC50 with Human rhinovirus sp. [9] was 0.108 µg/mL (≈ 0.283 µM); in the assay with Human rhinovirus sp. [10] it was 0.0265 µg/mL (≈ 0.0694 µM); in the assay on Human rhinovirus sp. [11], 0.0496 µg/mL (≈ 0.13 µM); in the assay with Human rhinovirus sp. [12] it was 0.034 µg/mL (≈ 0.0892 µM); in the assay on Human rhinovirus sp. [13] it was 1.91 µg/mL (≈ 5 µM); in the assay with Human rhinovirus sp. [14], 0.0304 µg/mL (≈ 0.0797 µM). Besides, the EC50 stood at 0.07 µg/mL (≈ 0.184 µM) with Human rhinovirus sp. [15]; 0.0293 µg/mL (≈ 0.0769 µM) in the assay on Human rhinovirus sp. [16]; 0.0454 µg/mL (≈ 0.119 µM) with Human rhinovirus sp. [17]; 0.0372 µg/mL (≈ 0.0974 µM) in the assay on Human rhinovirus sp. [18]; 0.0623 µg/mL (≈ 0.163 µM) with Human rhinovirus sp. [19].

`Cc1ccc(N2CCC(CCOc3ccc4nc(C)oc4c3)CC2)nn1`: the EC50 in the assay with Human rhinovirus sp. [1] and in the assay on Human rhinovirus sp. [2] was more than 0.5 µg/mL throughout.

As to `CCCCc1nc2cc(OCCC3CCN(c4ccc(C)nn4)CC3)ccc2o1`, the values for the EC50 with Human rhinovirus sp. [1] and with Human rhinovirus sp. [2] were 0.082 µg/mL (≈ 0.208 µM) and 0.013 µg/mL (≈ 0.033 µM), respectively.

As to `COc1nc2cc(OCCC3CCN(c4ccc(C)nn4)CC3)ccc2o1`, the concentration giving a half-maximal response (EC50) stood at 0.099 µg/mL (≈ 0.269 µM) in the assay on Human rhinovirus sp. [1] and 0.159 µg/mL (≈ 0.432 µM) with Human rhinovirus sp. [2].

Regarding `CCSc1nc2ccc(OCCC3CCN(c4ccc(C)nn4)CC3)cc2o1`, the EC50 with Human rhinovirus sp. [1] was determined as 0.05 µg/mL (≈ 0.125 µM); with Human rhinovirus sp. [2], 0.004 µg/mL (≈ 0.01 µM).

Consider `CCCOc1nc2ccc(OCCC3CCN(c4ccc(C)nn4)CC3)cc2s1`, for which the EC50 in the assay on Human rhinovirus sp. [1] was found to be 0.041 µg/mL (≈ 0.0994 µM); in the assay on Human rhinovirus sp. [2], 0.166 µg/mL (≈ 0.402 µM).

On to `CCSc1nc2ccc(OCCC3CCN(c4ccc(C)nn4)CC3)cc2n1C`, for which the results for the EC50 with Human rhinovirus sp. [1] and in the assay with Human rhinovirus sp. [2] were more than 0.25 µg/mL and 0.086 µg/mL (≈ 0.209 µM), respectively.

Turning to `CCOC(=O)c1ccc(OCCC2CCN(c3ccc(C)nn3)CC2)cc1` [PIRODAVIR], the EC50 with Human rhinovirus sp. [3] is 0.0348 µg/mL (≈ 0.0941 µM); in the assay on Human rhinovirus sp. [4], 0.00214 µg/mL (≈ 0.00579 µM); with Human rhinovirus sp. [5] it was 0.00792 µg/mL (≈ 0.0214 µM); with Human rhinovirus sp. [6], 0.0018 µg/mL (≈ 0.00487 µM); in the assay with Human rhinovirus sp. [7] it was 0.00365 µg/mL (≈ 0.00988 µM); with Human rhinovirus sp. [8] it was 0.00437 µg/mL (≈ 0.0118 µM). Also, the EC50 in the assay on Human rhinovirus sp. [9] was 0.0152 µg/mL (≈ 0.0412 µM); in the assay with Human rhinovirus sp. [10], 0.00277 µg/mL (≈ 0.0075 µM); in the assay with Human rhinovirus sp. [11], 0.00454 µg/mL (≈ 0.0123 µM); in the assay on Human rhinovirus sp. [12], 0.00472 µg/mL (≈ 0.0128 µM); with Human rhinovirus sp. [13] it was more than 5 µg/mL; with Human rhinovirus sp. [14], 0.00521 µg/mL (≈ 0.0141 µM). For the same compound, the EC50 in the assay with Human rhinovirus sp. [15] was 0.00956 µg/mL (≈ 0.0259 µM); with Human rhinovirus sp. [16], 0.0057 µg/mL (≈ 0.0154 µM); with Human rhinovirus sp. [17], 0.00374 µg/mL (≈ 0.0101 µM); with Human rhinovirus sp. [18], 0.00205 µg/mL (≈ 0.00555 µM); with Human rhinovirus sp. [19], 0.00083 µg/mL (≈ 0.00225 µM). The inhibition at 0.064 µg/mL in the assay on Human rhinovirus sp. [20] stood at 80%.

With `CCSc1nc2ccc(OCCC3CCN(c4ccc(C)nn4)CC3)cc2s1`, the EC50 in the assay on Human rhinovirus sp. [1] was determined as 0.049 µg/mL (≈ 0.118 µM); in the assay with Human rhinovirus sp. [2], 0.165 µg/mL (≈ 0.398 µM).

In the case of `CCOc1nc2cc(OCCC3CCN(c4ccc(C)nn4)CC3)ccc2s1`, the EC50 amounted to 0.006 µg/mL (≈ 0.0151 µM) in the assay with Human rhinovirus sp. [1] and 0.007 µg/mL (≈ 0.0176 µM) in the assay with Human rhinovirus sp. [2].

Turning to `CCCc1nc2cc(OCCC3CCN(c4ccc(C)nn4)CC3)ccc2o1`, the figures for the EC50 in the assay with Human rhinovirus sp. [1] and in the assay with Human rhinovirus sp. [2] were 0.028 µg/mL (≈ 0.0736 µM) and 0.075 µg/mL (≈ 0.197 µM), respectively.

For the compound `CCSc1nc2cc(OCCC3CCN(c4ccc(C)nn4)CC3)ccc2n1C`, the EC50 with Human rhinovirus sp. [1] stood at 0.169 µg/mL (≈ 0.411 µM); with Human rhinovirus sp. [2] it was 0.102 µg/mL (≈ 0.248 µM).

`CSc1nc2cc(OCCC3CCN(c4ccc(C)nn4)CC3)ccc2o1`: the concentration for a half-maximal effect (EC50) in the assay with Human rhinovirus sp. [1] amounted to 0.047 µg/mL (≈ 0.122 µM); in the assay on Human rhinovirus sp. [2], 0.099 µg/mL (≈ 0.257 µM).

Take `CCOc1nc2ccc(OCCC3CCN(c4ccc(C)nn4)CC3)cc2s1`: the EC50 in the assay with Human rhinovirus sp. [1] came out at 0.014 µg/mL (≈ 0.0351 µM); with Human rhinovirus sp. [2], 0.104 µg/mL (≈ 0.261 µM).

Regarding `CCOc1nc2ccc(OCCC3CCN(c4ccc(C)nn4)CC3)cc2o1`, the EC50 in the assay with Human rhinovirus sp. [2] amounted to 0.045 µg/mL (≈ 0.118 µM); in the assay on Human rhinovirus sp. [21], 0.023 µg/mL (≈ 0.0601 µM).

For `Cc1ccc(N2CCC(CCOc3ccc4oc(C)nc4c3)CC2)nn1`, the EC50 with Human rhinovirus sp. [1] and in the assay with Human rhinovirus sp. [2] was more than 0.5 µg/mL each time.

As for `CCSc1nc2cc(OCCC3CCN(c4ccc(C)nn4)CC3)ccc2o1`, the EC50 was 0.006 µg/mL (≈ 0.0151 µM) with Human rhinovirus sp. [1] and 0.002 µg/mL (≈ 0.00502 µM) in the assay with Human rhinovirus sp. [2].

Consider `CCOc1nc2cc(OCCC3CCN(c4ccc(C)nn4)CC3)ccc2o1`, for which the EC50 in the assay on Human rhinovirus sp. [3] was 0.142 µg/mL (≈ 0.372 µM); with Human rhinovirus sp. [4], 0.0152 µg/mL (≈ 0.0398 µM); in the assay with Human rhinovirus sp. [5] it was 0.00433 µg/mL (≈ 0.0113 µM); in the assay with Human rhinovirus sp. [6], 0.00053 µg/mL (≈ 0.00139 µM); in the assay on Human rhinovirus sp. [7] it was 0.00432 µg/mL (≈ 0.0113 µM); in the assay with Human rhinovirus sp. [1], 0.007 µg/mL (≈ 0.0183 µM). Besides, the EC50 with Human rhinovirus sp. [8] was 0.00226 µg/mL (≈ 0.00591 µM); in the assay with Human rhinovirus sp. [2], 0.003 µg/mL (≈ 0.00784 µM); in the assay on Human rhinovirus sp. [9], 0.00772 µg/mL (≈ 0.0202 µM); with Human rhinovirus sp. [10], 0.00116 µg/mL (≈ 0.00303 µM); in the assay with Human rhinovirus sp. [11], 0.00388 µg/mL (≈ 0.0101 µM); with Human rhinovirus sp. [22], more than 0.25 µg/mL. The EC50 worked out at 0.00078 µg/mL (≈ 0.00204 µM) in the assay with Human rhinovirus sp. [12]; 0.00345 µg/mL (≈ 0.00902 µM) in the assay with Human rhinovirus sp. [14]; 0.00874 µg/mL (≈ 0.0229 µM) with Human rhinovirus sp. [15]; 0.00151 µg/mL (≈ 0.00395 µM) in the assay with Human rhinovirus sp. [16]; 0.00728 µg/mL (≈ 0.019 µM) with Human rhinovirus sp. [17]; 0.0012 µg/mL (≈ 0.00314 µM) in the assay on Human rhinovirus sp. [18]. This compound also showed an EC50 with Human rhinovirus sp. [19] of 0.0003 µg/mL (≈ 0.000784 µM).
